Reference: paper PMC5610936 (Biochemical pharmacology, 2017)
Like-named read-outs stand apart in the source and are kept apart here.

How the values were obtained:
HT-29 cells [1] = assay: MTT cell growth assay; type: cell-based, human; settings: for IC50: Homo sapiens, HT-29, 72 h, read-out: IC50 inhibition of HT-29 cell proliferation; for 50% growth inhibition of HT-29 cells reached within 72 h: 100 nM, time course up to 72 h
HT-29 cells [2] = assay: Colony formation; type: cell-based, human
HT-29 cells [3] = assay: Intracellular ROS by flow cytometry with CM-H2-DCF-DA; type: cell-based, human; settings: 24 h; for change in DCF fluorescence (intracellular ROS) vs vehicle: 50 nM; for intracellular ROS (DCF) after high concentration: 500 nM
HT-29 cells [4] = assay: Seahorse oxygen consumption rate / extracellular acidification rate; type: cell-based, human
HT-29 cells [5] = system: HT-29 cells
NOX2 [6] = biological target: T1, NOX2 (Homo sapiens, UniProt P04839); assay: PMA-induced superoxide anion luminescence assay, PMNs; type: cell-based
NOX2 [7] = biological target: T1, NOX2; assay: PMA-induced superoxide anion luminescence assay, differentiated HL-60 cells; type: cell-based
HT-29 cells [8] = assay: HT-29 cell growth by cell counting after SOD/catalase; type: cell-based, human; settings: 96 h, 0-2000 U/ml, significant at ≥ 500 U/ml
[9] = Homo sapiens, HT-29, 240 h, read-out: 10-day treatment IC50, colony formation
[10] = Homo sapiens, HT-29, read-out: 2-h treatment IC50, colony formation
[11] = Homo sapiens, HT-29, 1 h, read-out: 60-min treatment IC50, cellular respiration (OCR)
[12] = Homo sapiens, HT-29, 24 h, read-out: 24-h treatment IC50, cellular respiration (OCR)
[13] = Homo sapiens, HT-29, 1 h, read-out: 60-min treatment IC50, cellular respiration (OCR), HT-29, 60 min
[14] = Homo sapiens, HT-29, 24 h, read-out: 24-h treatment IC50, cellular respiration (OCR), HT-29, 24 h
[15] = read-out: 24-h treatment IC50, cellular respiration (OCR), HT-29, 24 h
[16] = ratio of NOX2 IC50 values, PMN vs HL-60
[17] = read-out: 10-day treatment IC50, colony formation, HT-29, 10-day exposure
[18] = read-out: 30-min treatment IC50, cellular respiration (OCR), HT-29, 30 min
[19] = read-out: 60-min treatment IC50, cellular respiration (OCR), HT-29, 60 min

Question: With `c1ccc2c(c1)[I+]c1ccccc1-2` [DPI, Diphenylene iodonium, reference compound] as the molecule, how does the IC50 (HT-29 cells [1]) read?
Answer: ~450 nM

Question: What about the IC50 (HT-29 cells [2]; [9]) of the same molecule?
Answer: 39 ± 23 nM

Question: What about the IC50 (HT-29 cells [2]; [10]) of the same molecule?
Answer: 9260 nM

Question: What about the “change in DCF fluorescence (intracellular ROS) vs vehicle” value (“change in DCF fluorescence” for short) (HT-29 cells [3]) of the same molecule?
Answer: left-shift (decrease) in DCF fluorescence

Question: And the “intracellular ROS (DCF) after high concentration” value (“intracellular ROS (DCF)” for short) (HT-29 cells [3])?
Answer: increases in intracellular ROS

Question: And the “decrease in oxygen consumption” value (HT-29 cells [4]; 2 μM, immediate effect)?
Answer: 80%

Question: And the “concentration at which ECAR increased” value (HT-29 cells [4]; HT-29, 24-h treatment)?
Answer: 316 nM

Question: What about the “concentration at which OCR began to decrease” value (HT-29 cells [4]; HT-29, 24-h treatment) of the same molecule?
Answer: 31.6 nM

Question: What about the IC50 (HT-29 cells [4]; [11]) of the same molecule?
Answer: 4570 nM

Question: And the IC50 (HT-29 cells [4]; [12])?
Answer: 200 ± 245 nM

Question: And the “effect on mitochondrial ROS production (MitoSox)” value (HT-29 cells [5]; 1 μM, 2 h)?
Answer: right shift in MitoSox fluorescence

Question: What about the “effect on mitochondrial ROS production (MitoSox)” value (HT-29 cells [5]; concentrations ≤ 200 nM, 24 h) of the same molecule?
Answer: no effect

Question: For `O=[N+]([O-])c1ccc2c(c1)[I+]c1ccccc1-2.[Cl-]` [compound 428, Dibenz[b,d]iodolium, 3-nitro-, chloride], which “50% growth inhibition of HT-29 cells reached within 72 h” value (HT-29 cells [1]) is on record?
Answer: achieved 50% growth inhibition

Question: What about the IC50 (HT-29 cells [2]; [9]) of the same molecule?
Answer: 11 ± 6 nM

Question: What about the IC50 (HT-29 cells [2]; [10]) of the same molecule?
Answer: 77 ± 12 nM

Question: And the IC50 (HT-29 cells [2]; Homo sapiens, HT-29, read-out: 6-h treatment IC50, colony formation)?
Answer: 29 ± 23 nM

Question: What about the “change in DCF fluorescence” value (HT-29 cells [3]) of the same molecule?
Answer: left-shift (decrease) in DCF fluorescence

Question: What about the “intracellular ROS (DCF)” value (HT-29 cells [3]) of the same molecule?
Answer: increases in intracellular ROS

Question: And the IC50 (HT-29 cells [4]; [13])?
Answer: 211 ± 33 nM

Question: What about the IC50 (HT-29 cells [4]; [14]) of the same molecule?
Answer: 45 ± 23 nM

Question: What does the source list for `O=[N+]([O-])c1ccc2c(c1)[I+]c1cc([N+](=O)[O-])ccc1-2.[Br-]` [compound 392, Dibenziodolium, 3,7-dinitro-, bromide]?
Answer: IC50 (HT-29 cells [2]; [9]): 27 ± 28 nM; change in DCF fluorescence (intracellular ROS) vs vehicle (HT-29 cells [3]): left-shift (decrease) in DCF fluorescence; intracellular ROS (DCF) after high concentration (HT-29 cells [3]): did not demonstrate this effect; effect on cellular metabolic activity (OCR/ECAR) (HT-29 cells [4]; 24 h, concentrations ≤ 316 nM): no adverse effects; IC50 (HT-29 cells [4]; [13]): 2180 nM; IC50 (HT-29 cells [4]; [14]): ~800 nM; IC50 (HT-29 cells [4]; [15]): 801 ± 194 nM; IC50 (NOX2 [6]): 850 ± 197 nM; fold more potent in HL-60 leukemia line compared to PMNs (NOX2 [7]): 2- to 5 fold

Question: `Brc1ccc2c(c1)[I+]c1cc(Br)ccc1-2.[Br-]` [compound 104, Dibenziodolium, 3,7-dibromo-, bromide] was tested. Which “50% growth inhibition of HT-29 cells reached within 72 h” value (HT-29 cells [1]) did it give?
Answer: achieved 50% growth inhibition

Question: And the IC50 (HT-29 cells [1])?
Answer: 150 to 250 nM

Question: What about the IC50 (HT-29 cells [2]; [9]) of the same molecule?
Answer: 9 ± 2 nM

Question: And the IC50 (HT-29 cells [2]; [10])?
Answer: 1220 nM

Question: What about the “change in DCF fluorescence” value (HT-29 cells [3]) of the same molecule?
Answer: left-shift (decrease) in DCF fluorescence

Question: What about the “intracellular ROS (DCF)” value (HT-29 cells [3]) of the same molecule?
Answer: did not demonstrate this effect

Question: And the IC50 (HT-29 cells [4]; [11])?
Answer: 1470 nM

Question: And the IC50 (HT-29 cells [4]; [12])?
Answer: 74 ± 54 nM

Question: What about the IC50 (NOX2 [6]) of the same molecule?
Answer: 481 ± 44 nM

Question: And the “fold more potent in HL-60 leukemia line compared to PMNs” value (NOX2 [7]; [16])?
Answer: 2- to 5 fold

Question: Which results are given for `COC(=O)c1ccc2c(c1)[I+]c1ccccc1-2.Cc1ccc(S(=O)(=O)[O-])cc1` [compound 140, Dibenz[b,d]iodolium, 3-(methoxycarbonyl)-, salt with 4-methyl-benzenesulfonic acid (1:1)]?
Answer: IC50 (HT-29 cells [2]; [17]): 40 ± 32 nM; intracellular ROS (DCF) after high concentration (HT-29 cells [3]): did not demonstrate this effect; IC50 (HT-29 cells [4]; [15]): 76 ± 21 nM; IC50 (HT-29 cells [4]; [18]): 678 ± 201 nM; IC50 (HT-29 cells [4]; [19]): 475 ± 116 nM; fold more potent in HL-60 leukemia line compared to PMNs (NOX2 [7]; [16]): 2- to 5 fold

Question: With `O=[N+]([O-])c1cccc2c1-c1c(cccc1[N+](=O)[O-])[I+]2.[Br-]` [compound 521, Dibenziodolium, 1,9-dinitro-, salt with bromide (1:1)] as the molecule, how does the IC50 (HT-29 cells [2]; [17]) read?
Answer: 488 ± 101 nM

Question: And the “24-h treatment IC50, cellular respiration (OCR)” value (HT-29 cells [4]; HT-29, 24 h)?
Answer: No effect

Question: What about the IC50 (HT-29 cells [4]; [18]) of the same molecule?
Answer: 1670 nM

Question: And the IC50 (HT-29 cells [4]; [19])?
Answer: 1000 nM

B1: catalase: ROS detoxifying enzyme, human catalase (Sigma Aldrich) (protein, UniProt P04040 2-527, looked up)
Catalase: ADSRDPASDQMQHWKEQRAAQKADVLTTGAGNPVGDKLNVITVGPRGPLLVQDVVFTDEMAHFDRERIPERVVHAKGAGAFGYFEVTHDITKYSKAKVFEHIGKKTPIAVRFSTVAGESGSADTVRDPRGFAVKFYTEDGNWDLVGNNTPIFFIRDPILFPSFIHSQKRNPQTHLKDPDMVWDFWSLRPESLHQVSFLFSDRGIPDGHRHMNGYGSHTFKLVNANGEAVYCKFHYKTDQGIKNLSVEDAARLSQEDPDYGIRDLFNAIATGKYPSWTFYIQVMTFNQAETFPFNPFDLTKVWPHKDYPLIPVGKLVLNRNPVNYFAEVEQIAFDPSNMPPGIEASPDKMLQGRLFAYPDTHRHRLGPNYLHIPVNCPYRARVANYQRDGPMCMQDNQGGAPNYYPNSFGAPEQQPSALEHSIQYSGEVRRFNTANDDNVTQVRAFYVNVLNEEQRKRLCENIAGHLKDAQIFIQKKAVKNFTEVHPDYGSHIQALLDKYNAEKPKNAIHTFVQSGSHLAAREKANL
Question: B1 was tested. Which “effect on proliferation of HT-29 cells vs control-treated cells” value (HT-29 cells [8]) did it give?
Answer: reduced the proliferation
